Measurements published in patent US11324774B2, “Compositions of oral alkaline salts and metabolic acid inducers and uses thereof” (Augusta University Research Institute, Inc., priority 2018, dated 2022).
Read-outs that look alike come from different tables or passages of the source.

Tests used:
[1] = test system: kidney cells (M1/M2 macrophages); settings: 4 days
TNF-α = test system: TNF-α
Procedure: (§1) IL-6 and TNF-α were determined in plasma samples using the microfluidic simple plex cartridge system following manufacturer specifications. Briefly, Simple Plex uses 25 μL of serum for measurement of the […] cytokines. The work flow of the Simple Plex assays is: (a) a test cartridge is primed with samples with each sample split into channels (i.e., TNF-α and IL-6 to react with their respective antibodies immobilized on glass nanoreactors; (b) after sample incubation, circuits in the cartridge are cleaned with wash buffer, and biotinylated detection antibody solutions are individually pumped into their respective channels to bind to protein analyte captured on the GNRs; (c) after incubation, unbound detection antibodies are washed away and a detection solution (i.e., streptavidin DyLight 650) is flowed into all channels to conjugate with the biotinylated detection antibodies; (d) the detection solution is washed away; detection fluorophores (i.e., DyLight 650) are excited with a 631 nm laser; and the fluorescence signals are read with a charge-coupled device (CCD) camera. The signals are used for quantification based on master calibrator curves provided by the manufacturer.

IL-6 = test system: IL-6
Procedure: as §1

[2] = test system: vascular endothelial function; settings: in vivo, po
[3] = test system: TNF-α expressing splenic cells; settings: spleens of rats, given orally in drinking solution
Procedure: To identify and evaluate immune cells in splenic tissues, a flow cytometry-based assay was employed. Buffering capacity and pH were determined by titration of the solutions with HCl.
To identify and evaluate immune cells in splenic tissues, a flow cytometry-based assay was used.

[4] = test system: blood leukocytes (M1, M2 macrophages, TNFα+ neutrophils); settings: single 2 g dose
Procedure: Blood was taken at all time points for all control subjects. No data was excluded from the analysis. Flow cytometric analysis of heparinized whole blood was performed as described previously. Briefly, cells were incubated with antibodies for surface markers (15 minutes on ice in dark) before incubation with antibodies against intracellular cytokines and factors (after permeabilization for 15 minutes using fix/Perm cocktail, eBioscience, San Diego USA) including, CD11b, CD68, TNFα (for M1 macrophages), CD11b, CD68, CD206 and IL-10 (for M2 macrophages) (purchased from BD BioSciences) and CD16 and TNFα (for neutrophils, from eBioscience, USA). Cells were then washed and run through a four-color flow cytometer (FACS Calibur, BD Biosciences), and data were collected using CellQuest software. Samples were double-stained with control IgG and cell markers to assess any spillover signal of fluorochromes. Proper compensation was set to ensure the median fluorescence intensities of negative and positive cells were identical and then was used to gate the population. Gating excluded dead cells and debris using forward and side scatter plots.

parasympathetic activity = test system: parasympathetic activity
Procedure: Changes in heart rate (HR) and RR-interval were monitored over the last 5 min of a 15 min period of quiet rest in a supine position to establish baseline values. Time-domain indices of heart rate variability (HRV) including the root mean square differences of successive normal sinus RR intervals (rMSSD) and the percentage of successive normal sinus RR intervals >50 ms (pNN50) were calculated from a 3-lead ECG that was continuously recorded via a Finapres NOVA (Finapres Medical Systems, The Netherlands). Following treatment an additional 5 min segment of data was collected in the same manner and used to calculate post-treatment values of rMSSD and pNN50.
Parasympathetic activity was determined as described above. Potassium levels were determined using standard clinical laboratory procedures (Labcorp).

[5] = test system: spleen cells (M1/M2 macrophages)
[6] = Procedure: Serum Electrolytes: Blood samples were collected via an intravenous catheter (Nexiva™ Becton Dickinson, Franklin Lakes, N.J.) at baseline and at 60 minute intervals post-treatment to examine changes in serum electrolyte balance (Na, K, and Cl^−).
[7] = test system: T-regulatory cells (FOXP3+ T-regs), TH17 cells; experiment: Circulating T-regulatory and TH17 cells in rats; format: in vivo
[8] = Spleen, 14 Days HS, 0.1M NaHCO3 in drinking water
[9] = healthy rats, 3 days of drinking, 0.1M

**Q.** For `O=C([O-])O.[Na+]` [NaHCO3, sodium bicarbonate], which “dose dependence of the effect on polarization” value ([1]; 0.01M to 0.1M NaHCO3 in drinking water) is on record?
**A.** dose dependent

**Q.** And the “lowest NaHCO3 concentration in drinking water with changes in polarization” value ([1]; low salt laboratory chow)?
**A.** 0.01 M

**Q.** What about the “macrophage polarization in the kidney” value ([1]; out-bred Sprague Dawley rats) of the same compound?
**A.** promote M2 polarization

**Q.** What about the TNF-α (TNF-α; ingestion for 2 weeks) of the same compound?
**A.** reduces

**Q.** What about the TNF-α (TNF-α; single dose, 60 minutes) of the same compound?
**A.** reduces

**Q.** What about the IL-6 (IL-6; ingestion for 2 weeks) of the same compound?
**A.** reduces

**Q.** What about the IL-6 (IL-6; single dose, 60 minutes) of the same compound?
**A.** reduces

**Q.** And the FMD [2]?
**A.** improves

**Q.** What about the FMD/Shear [2] of the same compound?
**A.** improves

**Q.** What about the “number of TNF-α (inflammatory) expressing cells” value [3] of the same compound?
**A.** significantly reduced

**Q.** What about the “M1 macrophages in blood” value ([4]; 1-3 hours, compared to NaCl, p=0.0004) of the same compound?
**A.** reduced to a significantly greater degree

**Q.** What about the “TNFα positive neutrophils in blood” value ([4]; 1-3 hours, compared to NaCl, p=0.0146) of the same compound?
**A.** reduced to a significantly greater degree

**Q.** What about the “percentage of blood leukocytes identified as M2 macrophages” value ([4]; change from baseline compared to NaCl, p=0.00165) of the same compound?
**A.** increased

**Q.** What about the “parasympathetic activity (rMSSD)” value (parasympathetic activity; ingestion for 2 weeks) of the same compound?
**A.** improves

**Q.** What about the “parasympathetic activity (rMSSD)” value (parasympathetic activity; single dose, 60 minutes) of the same compound?
**A.** improves

**Q.** What about the CD3 [5, 8] of the same compound?
**A.** 15.3 ± 0.8%

**Q.** And the CD4 [5, 8]?
**A.** 53 ± 1%

**Q.** What about the CD11b/c [5, 8] of the same compound?
**A.** 7.3 ± 0.6%

**Q.** And the CD44 [5, 8]?
**A.** 35 ± 2%

**Q.** And the CD69 [5, 8]?
**A.** 7.2 ± 0.9%

**Q.** What about the FOXP3 [5, 8] of the same compound?
**A.** 6 ± 0.5%

**Q.** And the IL-10 [5, 8]?
**A.** 7.5 ± 0.7%

**Q.** And the IL-17 [5, 8]?
**A.** 2.8 ± 0.6%

**Q.** What about the M1 [5, 8] of the same compound?
**A.** 5.8 ± 0.5%

**Q.** And the M2 [5, 8]?
**A.** 8.3 ± 0.5%

**Q.** And the TNFα [5, 8]?
**A.** 3 ± 0.5%

**Q.** What about the “macrophage polarization in splenic tissue” value ([5]; high salt fed, p=0.005) of the same compound?
**A.** polarization from predominately M1 to M2

**Q.** What about the serum potassium ([6]; after single 2 g dose) of the same compound?
**A.** decreased

**Q.** What about the Na ([6]; serum, Post-treatment, single 2 g dose in 250 ml water) of the same compound?
**A.** 140.8 ± 0.5 mmol/L

**Q.** And the “anti-inflammatory T-regulatory cells” value [7, 9]?
**A.** robust but identical increases

**Q.** And the “pro-inflammatory TH17 cells” value [7, 9]?
**A.** decreases

**Q.** And the “circulating anti-inflammatory T cells (FOXP3+ T-regs)” value ([7]; rats, 4 days in drinking water)?
**A.** significantly increased
